How the values were obtained:
[1] = test system: NRK-52E cells; assay: LAMP-1 immunofluorescence (KE1, disturbance of lysosomal function); assay type: cell-based, rat; conditions: for BMC10, KE1: in vitro POD from KE dose-response, LAMP-1 intensity, NRK-52E, 24 h treatment, n = 3; for MOE, KE1: margin of exposure: BMC10 in NRK-52E vs rat plasma/serum concentration (cmax or css)
Protocol: For immunocytochemistry experiments, cells were seeded into 8-well chamber slides (Ibidi) at a density of 140 cells per µL in 300 µL growth medium and were allowed to grow for 48 h (NRK-52E) or 10 d (RPTEC/TERT1) respectively. For treatment, stock solutions (1,000 µM) of compounds dissolved in growth medium were freshly prepared and serial dilutions were made before exposure of cells for 24 h. After treatment, cells were washed twice with 150 µL PBS and fixed with 150 µL 4% paraformaldehyde in 1 x PBS for 10 min at room temperature. After fixation, cells were washed 10 min with 150 µL PBS on an orbital shaker followed by permeabilization with 150 µL 0.2% Triton X-100 in 1 x PBS for 5 min at room temperature on an orbital shaker. The permeabilized cells were washed twice with 1 x PBS (150 µL) for 10 min at room temperature on an orbital shaker and then incubated with 150 µL 5% BSA dissolved in 1 x PBS for 1 h at room temperature to block unspecific binding sites. After blocking, 100 µL primary antibody diluted 1:100 in 1% BSA in 1 x PBS were directly pipetted onto the cells and incubated overnight at 4°C. The following antibodies were employed for NRK-52E cells: Anti-LAMP-1 monoclonal IgG1 kappa mouse antibody (Santa Cruz; sc-20011), anti-Cathepsin D mouse monoclonal IgG2 kappa antibody (Santa Cruz; sc-377124); for RPTEC/TERT1 cells: Anti-LAMP-2 monoclonal mouse antibody (Santa Cruz; sc-18822), anti-Cathepsin D mouse monoclonal IgG2b kappa (Novus Biologicals; NBP1-04278); for both cell lines anti-megalin mouse monoclonal IgG1 antibody (Santa Cruz, sc-515772).
After incubation with primary antibody, cells were washed three times for 15 min with 0.2% Tween in 1 x PBS (150 µL) on an orbital shaker. Cells were incubated for 1 h at room temperature with 100 µL CFL 488-conjugated mouse IgG kappa binding protein (1:50) (m-IgGκ BP-CFL 488; Santa Cruz, sc-516176). After incubation the cells were washed three times for 15 min with 0.2% Tween in 1 x PBS on an orbital shaker and once with 150 µL sterile water. […] To preserve fluorescence 50–100 µL DAPI mounting medium (Vectashield®; Vectorlab, Biozol) was added to the cells and chamber slides were stored at 4°C in the dark until image acquisition.
Images were taken with a TCS SP5 II confocal microscope with an HCX PL APO lambda blue 63.0 × 1.40 OIL UV objective (Leica Microsystems, Wetzlar, GER) (n = 10 cells/treatment group). […] Before quantification, images were blinded and randomized. Quantification of fluorescence intensity was performed using NIH Image® software. […] The mean values of the pixel intensities were automatically calculated by the software and imported in Excel for further processing.

[2] = test system: NRK-52E cells; assay: CellTiter-Glo cytotoxicity assay (KE3); assay type: cell-based, rat; conditions: for BMC10, KE3: in vitro POD from KE dose-response, cell viability CellTiter-Glo, NRK-52E, 24 h treatment, n = 3; for MOE, KE3: margin of exposure: BMC10 in NRK-52E vs rat plasma/serum concentration (cmax or css)
Protocol: Cells were plated into 96-well tissue culture plates (10,000 cells per well) and were allowed to grow for 48 h (NRK-52E) respectively 10 d (RPTEC/TERT1) prior to 24 h treatment with model stressors. Stock solution for each compound (2000 µM) was prepared in growth medium and serial dilutions (1:1) were made before each experiment. At the end of the 24 h treatment, cell viability was measured using the CellTiter-Glo® assay (Promega). CellTiter-Glo® reagents and buffer were mixed under light-protected conditions and 100 µL CellTiter-Glo® solution was added directly to each well followed by 2 min incubation on an orbital shaker and 10 min incubation at room temperature in the dark to stabilize the luminescence signal. The suspension was mixed via pipetting and 50 µL were transferred into white 96-well plates (PerkinElmer Inc.). The luminescence signal was measured on a multiplate reader (Mithras LB 940; Berthold). Each assay was performed in three independent experiments carried out in triplicates.

Substance	BMC10, KE1 [1] [µM]	MOE, KE1 [1]	BMC10, KE3 [2] [µM]	MOE, KE3 [2]
Colistin	36.2	3.5 – 7.1	135.5	13.0 – 26.6
Polymyxin B	13.7	1.9 – 2.0	19.9	2.8

Source: PMC9061999, “Application of the Adverse Outcome Pathway Concept to In Vitro Nephrotoxicity Assessment: Kidney Injury due to Receptor-Mediated Endocytosis and Lysosomal Overload as a Case Study” (Frontiers in Toxicology, 2022)
